Patent US20250230138A1, “COMPOUNDS HAVING A T-STRUCTURE FORMED BY AT LEAST FOUR CYCLES FOR USE IN THE TREATMENT OF CANCER AND OTHER INDICATIONS” (TheRas, Inc., priority 2022, published 2025)
Like-named read-outs stand apart in the source and are kept apart here.

What was measured:
[1] = molecular target: Cys242 in human PIK3CA (157-299) (Homo sapiens (Human), UniProt P42336); assay: Covalent modification assay using MALDI-TOF MS; format: biochemical; details: 4 h reaction time point; 3.33 μM protein target, 1:7.5 protein to compound ratio (compounds 1-852)
How it was run: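 PIK3CA (157-299), 3.33 or 1 μM in 20 mM HEPES, 150 mM NaCl, 2 mM MgCl2, pH 7.3, was incubated with compound at room temperature in the dark for 15 min, 30 min, 2 h or 4 h. Linear MALDI-TOF read-out; % modification = adduct peak height over summed heights of all protein species.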

pAKT in BT474 cells = assay: Cell-based pAKT HTRF assay in BT474 cells; details: BT474 cells, 4 hr incubation, Compounds 10-999, read-out: pAKT inhibition IC50 in BT474 cells
How it was run: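 The HTRF signal (excitation 320 nm, emission 615 nm) came from d2/Eu Cryptate antibodies added to lysates and incubated 4–24 h at room temperature. Those lysates were taken from cells treated for 4 hr with compound, top concentration 3 μM, in 0.25% DMSO.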

Sequence of Cys242 in human PIK3CA (157-299) (P42336 157-299): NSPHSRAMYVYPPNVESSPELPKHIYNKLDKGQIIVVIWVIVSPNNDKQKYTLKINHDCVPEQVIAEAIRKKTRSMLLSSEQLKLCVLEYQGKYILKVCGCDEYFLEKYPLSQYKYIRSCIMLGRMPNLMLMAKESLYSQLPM

IC50 (pAKT in BT474 cells) | IC50 (pAKT in BT474 cells; Homo sapiens, BT-474) | SMILES | % of modification [1]
< 100 nM | – | C=CC(=O)N1CCn2nc(-c3nc(C4CCN(C(C)C)CC4)c4ccsc4c3-c3ccc(F)cc3OC(C)C)cc2C1 [Compound 240] | A (percent of modification of PIK3CA protein ≥75%)
100 to 1000 nM | – | C=CC(=O)N1CC[C@H](n2cc(-c3nc(-c4ccnc(N)c4)c4ccsc4c3-c3ccc(F)cc3OCC3CCNC(=O)C3)ccc2=O)C1 (stereo partly drawn) [Compound 241] | A (percent of modification of PIK3CA protein ≥75%)
< 100 nM | – | C=CC(=O)N1CCn2nc(-c3nc(-c4ccc5c(c4)CCN(C)C5)c4ccsc4c3-c3ccc(F)cc3OCCOC)cc2C1 [Compound 242] | A (percent of modification of PIK3CA protein ≥75%)
100 to 1000 nM | – | C=CC(=O)N1CCn2nc(-c3nc(N4CCCCC4)c4ccsc4c3-c3ccc(F)cc3OCC3CCN(C)C(=O)C3)cc2C1 (stereo not drawn) [Compound 243] | A (percent of modification of PIK3CA protein ≥75%)
< 100 nM | – | C=CC(=O)N1CCn2nc(-c3nc(-c4ccc5c(c4)CCN(C(C)C)C5)c4ccsc4c3-c3ccc(F)cc3OC(F)F)cc2C1 [Compound 244] | A (percent of modification of PIK3CA protein ≥75%)
< 100 nM | – | C=CC(=O)N1CCn2nc(-c3nc(-c4cnn(C(F)F)c4)c4ccsc4c3-c3ccc(F)cc3OCCOC)cc2C1 [Compound 245] | A (percent of modification of PIK3CA protein ≥75%)
< 100 nM | – | C=CC(=O)N1CCn2nc(-c3nc(-c4ccc(=O)[nH]c4)c4ccsc4c3-c3ccc(F)cc3OC(C)C)cc2C1 [Compound 248] | A (percent of modification of PIK3CA protein ≥75%)
< 100 nM | – | C=CC(=O)N1CCn2nc(-c3nc(-c4ccnc(N)c4)c4ccsc4c3-c3ccc(F)cc3OCC3CCNC(=O)C3)cc2C1 (stereo not drawn) [Compound 249] | A (percent of modification of PIK3CA protein ≥75%)
< 100 nM | – | C=CC(=O)N1CCn2nc(-c3nc(-c4ccc5c(c4)CCN(C(C)C)C5)c4ccsc4c3-c3ccc(F)cc3F)cc2C1 [Compound 250] | A (percent of modification of PIK3CA protein ≥75%)
< 100 nM | – | C=CC(=O)N1CCn2nc(-c3nc(-c4cnc5c(c4)CN(C)CC5)c4ccsc4c3-c3ccc(F)cc3OCCOC)cc2C1 [Compound 253] | A (percent of modification of PIK3CA protein ≥75%)
< 100 nM | – | C=CC(=O)N1CCn2nc(-c3nc(-c4ccc5c(c4)CCN(C(C)C)C5)c4ccsc4c3-c3ccc(F)cc3OCC3CCNC(=O)C3)cc2C1 (stereo not drawn) [Compound 254] | A (percent of modification of PIK3CA protein ≥75%)
100 to 1000 nM | – | C=C(F)C(=O)N1CCn2nc(-c3nc(-c4ccc5c(c4)CCN(C)C5)c4ccsc4c3-c3ccc(F)cc3OC(C)C)nc2C1 [Compound 255] | A (percent of modification of PIK3CA protein ≥75%)
100 to 1000 nM | – | C=C(F)C(=O)N1CCn2nc(-c3nc(-c4ccc5c(c4)CCNC5=O)c4ccsc4c3-c3ccc(F)cc3OC(C)C)nc2C1 [Compound 256] | A (percent of modification of PIK3CA protein ≥75%)
< 100 nM | – | C=CC(=O)N1CCn2nc(-c3nc(-c4ccc5c(c4)[C@H](O)CC5)c4ccsc4c3-c3ccc(F)cc3OCCOC)cc2C1 [Compound 257] | A (percent of modification of PIK3CA protein ≥75%)
– | < 100 nM | C=C(F)C(=O)N1CCn2nc(-c3nc(-c4ccc5c(c4)CCNC5=O)c4ccsc4c3-c3ccc(F)cc3OC(C)C)cc2C1 [Compound 258, 6-[7-(4-fluoro-2-isopropoxy-phenyl)-6-[5-(2-fluoroprop-2-enoyl)-6,7-dihydro-4H-pyrazolo[1,5-a]pyrazin-2-yl]thieno[3,2-c]pyridin-4-yl]-3,4-dihydro-2H-isoquinolin-1-one] | B (50%<percent of modification <75%)
< 100 nM | – | C=CC(=O)N1CCn2nc(-c3nc(-c4cncc(C#N)c4)c4ccsc4c3-c3ccc(F)cc3OC(C)C)cc2C1 [Compound 259] | A (percent of modification of PIK3CA protein ≥75%)
< 100 nM | – | C=CC(=O)N1CCn2nc(-c3nc(-c4ccc5c(c4)CCNC5)c4ccsc4c3-c3ccc(F)cc3OCC3CCNC(=O)C3)cc2C1 (stereo not drawn) [Compound 261] | A (percent of modification of PIK3CA protein ≥75%)
< 100 nM | – | C=CC(=O)N1CCn2nc(-c3nc(-c4ccc5c(c4)[C@@H](O)CC5)c4ccsc4c3-c3ccc(F)cc3OCCOC)cc2C1 [Compound 262] | A (percent of modification of PIK3CA protein ≥75%)

IC50 (pAKT in BT474 cells) | IC50 (pAKT in BT474 cells; Homo sapiens, BT-474) | SMILES | % of modification [1]
< 100 nM | – | C=CC(=O)N1CCn2nc(-c3nc(-c4ccc5c(c4)CCN(C(C)C)C5)c4ccsc4c3-c3ccc(F)cc3OC)cc2C1 [Compound 263] | A (percent of modification of PIK3CA protein ≥75%)
> 3000 nM | – | C=CC(=O)N1CCn2cc(-c3nc(-c4ccc(=O)n(C)c4)c4ccsc4c3-c3ccc(F)cc3OCC3CCN(C)C(=O)C3)nc2C1 (stereo not drawn) [Compound 264] | A (percent of modification of PIK3CA protein ≥75%)
< 100 nM | – | C=CC(=O)N1CCn2nc(-c3nc(-c4ccc5c(c4)CCN(C)C5)c4ccsc4c3-c3ccc(F)cc3OC)cc2C1 [Compound 265] | A (percent of modification of PIK3CA protein ≥75%)
< 100 nM | – | C=CC(=O)N1CCn2nc(-c3nc(-c4ccc(=O)n(CC(F)F)c4)c4ccsc4c3-c3ccc(F)cc3OCCOC)cc2C1 [Compound 266] | A (percent of modification of PIK3CA protein ≥75%)
100 to 1000 nM | – | C=C(F)C(=O)N1CCn2nc(-c3nc(-c4ccc(=O)n(C)c4)c4ccsc4c3-c3ccc(F)cc3OC(C)C)nc2C1 [Compound 267] | A (percent of modification of PIK3CA protein ≥75%)
100 to 1000 nM | – | CC#CC(=O)N1CCn2nc(-c3nc(-c4ccc5c(c4)CCNC5=O)c4ccsc4c3-c3ccc(F)cc3OC(C)C)cc2C1 [Compound 268] | A (percent of modification of PIK3CA protein ≥75%)
< 100 nM | – | C=CC(=O)N1CCn2nc(-c3nc(-c4cccc(C#N)c4)c4ccsc4c3-c3ccc(F)cc3OCCOC)cc2C1 [Compound 270] | A (percent of modification of PIK3CA protein ≥75%)
< 100 nM | – | C=CC(=O)N1CCn2nc(-c3nc(-c4ccc5c(c4)CCN(C)C5)c4ccsc4c3-c3ccc(F)cc3OC(C)C)nc2C1 [Compound 271] | A (percent of modification of PIK3CA protein ≥75%)
< 100 nM | – | C=CC(=O)N1CCn2cc(-c3nc(-c4ccc(=O)n(C)c4)c4ccsc4c3-c3ccc(F)cc3OC(C)C)nc2C1 [Compound 272] | A (percent of modification of PIK3CA protein ≥75%)
– | > 3000 nM | C=CC(=O)N1CCn2nc(-c3nc(-c4ccc(=O)n(C)c4)cnc3-c3ccc(F)cc3OC(C)C)cc2C1 [Compound 273, 5-[5-(4-fluoro-2-isopropoxy-phenyl)-6-(5-prop-2-enoyl-6,7-dihydro-4H-pyrazolo[1,5-a]pyrazin-2-yl)pyrazin-2-yl]-1-methyl-pyridin-2-one] | C (25%≤percent of modification <50%)
– | 100 to 1000 nM | C=CC(=O)N1CCc2nc(-c3nc(-c4ccc5c(c4)CCNC5)c4c(F)csc4c3-c3ccc(F)cc3OC)sc2C1 [Compound 274, 1-[2-[3-fluoro-7-(4-fluoro-2-methoxy-phenyl)-4-(1,2,3,4-tetrahydroisoquinolin-6-yl)thieno[3,2-c]pyridin-6-yl]-6,7-dihydro-4H-thiazolo[5,4-c]pyridin-5-yl]prop-2-en-1-one] | A (percent of modification of PIK3CA protein ≥75%)
< 100 nM | – | C=CC(=O)N1CCn2nc(-c3nc(-c4cnn(C)c4)c4ccsc4c3-c3ccc(F)cc3OCC)cc2C1 [Compound 275] | A (percent of modification of PIK3CA protein ≥75%)
100 to 1000 nM | – | C=C(F)C(=O)N1CCn2nc(-c3nc(-c4ccc(=O)n(C)c4)c4ccsc4c3-c3ccc(F)cc3OC(C)C)cc2C1 [Compound 276] | A (percent of modification of PIK3CA protein ≥75%)
100 to 1000 nM | – | COC/C=C/C(=O)N1CCn2nc(-c3nc(-c4ccc5c(c4)CCNC5=O)c4ccsc4c3-c3ccc(F)cc3OC(C)C)cc2C1 [Compound 277] | A (percent of modification of PIK3CA protein ≥75%)
100 to 1000 nM | – | C=C(F)C(=O)N1CCn2nc(-c3nc(-c4ccc(=O)n(C)c4)c4ccsc4c3-c3ccc(F)cc3OCCOC)cc2C1 [Compound 278] | B (50%<percent of modification <75%)
– | 100 to 1000 nM | C=CC(=O)N1CCn2nc(-c3nc(-c4cnn(C)c4)ccc3-c3ccc(F)cc3OC(C)C)cc2C1 [Compound 279, 1-[2-[3-(4-fluoro-2-isopropoxy-phenyl)-6-(1-methylpyrazol-4-yl)-2-pyridyl]-6,7-dihydro-4H-pyrazolo[1,5-a]pyrazin-5-yl]prop-2-en-1-one] | A (percent of modification of PIK3CA protein ≥75%)
< 100 nM | – | C=CC(=O)N1CCn2nc(-c3nc(-c4cnn([C@@H](CO)CF)c4)c4ccsc4c3-c3ccc(F)cc3OCCOC)cc2C1 [Compound 280] | A (percent of modification of PIK3CA protein ≥75%)
– | > 3000 nM | C=CC(=O)N1CCn2nc(-c3cc(-c4cnn(C)c4)cnc3-c3ccc(F)cc3OCCOC)cc2C1 [Compound 281, 1-[2-[2-[4-fluoro-2-(2-methoxyethoxy)phenyl]-5-(1-methylpyrazol-4-yl)-3-pyridyl]-6,7-dihydro-4H-pyrazolo[1,5-a]pyrazin-5-yl]prop-2-en-1-one] | C (25%≤percent of modification <50%)
